For 20 compounds, EC50 and Emax results are on record in patent US9642831B2, “Substituted chromanes and method of use” (AbbVie S.á.r.l., priority 2014, dated 2017).

The target of the experiment is F508delCFTR (Homo sapiens, UniProt P13569, DEL508-508). As to the kind of experiment: Cell Surface Expression-Horse Radish Peroxidase (CSE-HRP) assay. The settings on record: CFBE4lo-F508delCFTR-HRP cells; for EC50: 18-24 hours at 33° C., 8-point curve, highest concentration 20 μM, luminescence readout; for Emax: maximum % activity at any tested concentration, normalized to on-plate positive control (3 μM Example 1). It counts as cell-based. More on the design: expressed in transfected cells; host or cells: CFBE41o- human lung derived epithelial cell line, doxycycline-inducible. An outline of the steps:
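Following 18-24 h compound exposure at 33° C. Expression was doxycycline-induced beforehand. % activity versus DMSO and a 3 μM corrector control gave maximum activity and EC50 from a variable-Hill sigmoidal fit.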

Sequence of F508delCFTR (P13569 with tags, fused parts or gaps DEL508-508): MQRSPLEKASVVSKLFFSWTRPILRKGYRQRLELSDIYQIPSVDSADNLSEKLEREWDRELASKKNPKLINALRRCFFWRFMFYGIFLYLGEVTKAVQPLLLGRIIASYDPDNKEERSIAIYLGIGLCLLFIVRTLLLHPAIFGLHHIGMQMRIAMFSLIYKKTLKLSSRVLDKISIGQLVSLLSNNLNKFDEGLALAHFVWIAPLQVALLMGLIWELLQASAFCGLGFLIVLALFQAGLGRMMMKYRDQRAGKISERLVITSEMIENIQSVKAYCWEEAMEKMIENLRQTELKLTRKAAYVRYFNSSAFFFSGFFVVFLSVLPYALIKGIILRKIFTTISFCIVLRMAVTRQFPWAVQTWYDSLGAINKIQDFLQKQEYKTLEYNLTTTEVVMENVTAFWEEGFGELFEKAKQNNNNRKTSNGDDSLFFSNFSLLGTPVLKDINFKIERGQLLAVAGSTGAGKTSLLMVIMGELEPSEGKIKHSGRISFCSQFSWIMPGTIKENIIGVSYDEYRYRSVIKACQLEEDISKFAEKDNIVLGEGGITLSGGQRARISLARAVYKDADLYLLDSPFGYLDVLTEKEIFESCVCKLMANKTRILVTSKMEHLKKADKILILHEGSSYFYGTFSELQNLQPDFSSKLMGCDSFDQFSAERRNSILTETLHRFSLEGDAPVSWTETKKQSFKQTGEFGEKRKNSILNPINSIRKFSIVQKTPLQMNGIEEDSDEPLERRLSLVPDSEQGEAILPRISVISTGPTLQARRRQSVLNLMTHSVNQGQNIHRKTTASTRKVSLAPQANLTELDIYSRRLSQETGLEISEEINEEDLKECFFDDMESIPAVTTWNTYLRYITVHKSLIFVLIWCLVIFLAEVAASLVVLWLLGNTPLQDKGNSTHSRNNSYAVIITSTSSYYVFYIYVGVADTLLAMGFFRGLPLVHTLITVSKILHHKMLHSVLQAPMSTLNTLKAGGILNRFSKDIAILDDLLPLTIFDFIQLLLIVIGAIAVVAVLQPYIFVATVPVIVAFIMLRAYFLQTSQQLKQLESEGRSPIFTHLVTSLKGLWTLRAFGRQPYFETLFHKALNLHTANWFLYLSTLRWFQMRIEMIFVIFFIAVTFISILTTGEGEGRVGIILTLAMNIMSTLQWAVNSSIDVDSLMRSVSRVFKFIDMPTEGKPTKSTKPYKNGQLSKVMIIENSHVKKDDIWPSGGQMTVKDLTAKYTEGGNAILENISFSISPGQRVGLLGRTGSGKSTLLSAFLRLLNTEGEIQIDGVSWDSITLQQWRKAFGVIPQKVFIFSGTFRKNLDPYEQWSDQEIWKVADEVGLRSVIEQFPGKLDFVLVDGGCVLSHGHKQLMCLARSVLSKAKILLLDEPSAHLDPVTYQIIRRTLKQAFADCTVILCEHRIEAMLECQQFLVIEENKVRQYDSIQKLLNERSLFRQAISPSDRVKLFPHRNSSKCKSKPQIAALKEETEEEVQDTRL

Broadly, the EC50 is the concentration at which the effect is half-maximal. Low readings indicate a more potent agent, high ones a less potent agent. A word on the Emax: it is the greatest response seen or fitted, relative to the assay's reference. Consider `COc1ccc2c(c1)O[C@@H](C(=O)NCCc1cccc(O)c1)C[C@H]2NC(=O)C1(c2ccc3c(c2)OC(F)(F)O3)CC1` (racemic) [Example 179, rac-(2R,4R)-4-({[1-(2,2-difluoro-1,3-benzodioxol-5-yl)cyclopropyl]carbonyl}amino)-N-[2-(3-hydroxyphenyl)ethyl]-7-methoxy-3,4-dihydro-2H-chromene-2-carboxamide], for which it took 0.8 µM to reach a half-maximal effect (EC50) and the Emax was 69%.
As to `COc1ccc2c(c1)O[C@@H](C(=O)NC(CO)CO)C[C@H]2NC(=O)C1(c2ccc3c(c2)OC(F)(F)O3)CC1` (racemic) [Example 180, rac-(2R,4R)-4-({[1-(2,2-difluoro-1,3-benzodioxol-5-yl)cyclopropyl]carbonyl}amino)-N-(1,3-dihydroxypropan-2-yl)-7-methoxy-3,4-dihydro-2H-chromene-2-carboxamide], the EC50 is 5.93 µM and the Emax amounted to 59%.
On to `COc1ccc2c(c1)O[C@@H](C(=O)NC1c3ccccc3CC1O)C[C@H]2NC(=O)C1(c2ccc3c(c2)OC(F)(F)O3)CC1` (mixture of isomers) [Example 181, rac-(2R,4R)-4-({[1-(2,2-difluoro-1,3-benzodioxol-5-yl)cyclopropyl]carbonyl}amino)-N-(2-hydroxy-2,3-dihydro-1H-inden-1-yl)-7-methoxy-3,4-dihydro-2H-chromene-2-carboxamide], for which the EC50 was found to be 1.59 µM and the maximal response (Emax) was determined as 57%.
`COc1ccc2c(c1)O[C@@H](C(=O)Nc1ccccc1O)C[C@@H]2NC(=O)C1(c2ccc3c(c2)OC(F)(F)O3)CC1` (racemic) [Example 182, rac-(2R,4S)-4-({[1-(2,2-difluoro-1,3-benzodioxol-5-yl)cyclopropyl]carbonyl}amino)-N-(2-hydroxyphenyl)-7-methoxy-3,4-dihydro-2H-chromene-2-carboxamide] displayed an EC50 of 0.8 µM and an Emax of 46%.
As for `CCCN(CCO)C(=O)[C@H]1C[C@H](NC(=O)C2(c3ccc4c(c3)OC(F)(F)O4)CC2)c2ccc(OC)cc2O1` (racemic) [Example 183, rac-(2R,4S)-4-({[1-(2,2-difluoro-1,3-benzodioxol-5-yl)cyclopropyl]carbonyl}amino)-N-(2-hydroxyethyl)-7-methoxy-N-propyl-3,4-dihydro-2H-chromene-2-carboxamide], the EC50 worked out at 0.86 µM and the Emax was 67%.
In the case of `COc1ccc2c(c1)O[C@@H](C(=O)N(CCO)Cc1ccccc1)C[C@@H]2NC(=O)C1(c2ccc3c(c2)OC(F)(F)O3)CC1` (racemic) [Example 184, rac-(2R,4S)—N-benzyl-4-({[1-(2,2-difluoro-1,3-benzodioxol-5-yl)cyclopropyl]carbonyl}amino)-N-(2-hydroxyethyl)-7-methoxy-3,4-dihydro-2H-chromene-2-carboxamide], a half-maximal effect (EC50) was put at 0.58 µM and the Emax came to 73%.
Compound `COc1ccc2c(c1)O[C@@H](C(=O)N(C)CC(O)c1ccccc1)C[C@@H]2NC(=O)C1(c2ccc3c(c2)OC(F)(F)O3)CC1` (mixture of isomers) [Example 185, rac-(2R,4S)-4-({[1-(2,2-difluoro-1,3-benzodioxol-5-yl)cyclopropyl]carbonyl}amino)-N-(2-hydroxy-2-phenylethyl)-7-methoxy-N-methyl-3,4-dihydro-2H-chromene-2-carboxamide] registered an EC50 of 0.64 µM and a maximal effect (Emax) of 77%.
The corresponding values for `COc1ccc2c(c1)O[C@@H](C(=O)N1CCC(O)CC1)C[C@@H]2NC(=O)C1(c2ccc3c(c2)OC(F)(F)O3)CC1` (racemic) [Example 186, rac-1-(2,2-difluoro-1,3-benzodioxol-5-yl)-N-{(2R,4S)-2-[(4-hydroxypiperidin-1-yl)carbonyl]-7-methoxy-3,4-dihydro-2H-chromen-4-yl}cyclopropanecarboxamide] are 1.36 µM and 66%.
Take `COc1ccc2c(c1)O[C@@H](C(=O)N1CCN(CCO)CC1)C[C@@H]2NC(=O)C1(c2ccc3c(c2)OC(F)(F)O3)CC1` (racemic) [Example 187, rac-1-(2,2-difluoro-1,3-benzodioxol-5-yl)-N-[(2R,4S)-2-{[4-(2-hydroxyethyl)piperazin-1-yl]carbonyl}-7-methoxy-3,4-dihydro-2H-chromen-4-yl]cyclopropanecarboxamide]: the EC50 was 1.95 µM and the Emax was found to be 76%.
Regarding `COc1ccc2c(c1)O[C@@H](C(=O)NCC(C)(C)O)C[C@@H]2NC(=O)C1(c2ccc3c(c2)OC(F)(F)O3)CC1` (racemic) [Example 188, rac-(2R,4S)-4-({[1-(2,2-difluoro-1,3-benzodioxol-5-yl)cyclopropyl]carbonyl}amino)-N-(2-hydroxy-2-methylpropyl)-7-methoxy-3,4-dihydro-2H-chromene-2-carboxamide], the EC50 was determined as 4.65 µM and the Emax was determined as 43%.
The compound `COc1ccc2c(c1)O[C@@H](C(=O)NC(C)(C)CO)C[C@@H]2NC(=O)C1(c2ccc3c(c2)OC(F)(F)O3)CC1` (racemic) [Example 189, rac-(2R,4S)-4-({[1-(2,2-difluoro-1,3-benzodioxol-5-yl)cyclopropyl]carbonyl}amino)-N-(1-hydroxy-2-methylpropan-2-yl)-7-methoxy-3,4-dihydro-2H-chromene-2-carboxamide] gave an EC50 of 3.83 µM and an Emax of 58%.
`COc1ccc2c(c1)O[C@@H](C(=O)NC(CO)c1ccccc1)C[C@@H]2NC(=O)C1(c2ccc3c(c2)OC(F)(F)O3)CC1` (mixture of isomers) [Example 190, rac-(2R,4S)-4-({[1-(2,2-difluoro-1,3-benzodioxol-5-yl)cyclopropyl]carbonyl}amino)-N-(2-hydroxy-1-phenylethyl)-7-methoxy-3,4-dihydro-2H-chromene-2-carboxamide] had an EC50 of 2.79 µM and an Emax of 39%.
The corresponding values for `COc1ccc2c(c1)O[C@@H](C(=O)NC1CCS(=O)(=O)CC1)C[C@@H]2NC(=O)C1(c2ccc3c(c2)OC(F)(F)O3)CC1` (racemic) [Example 191, rac-(2R,4S)-4-({[1-(2,2-difluoro-1,3-benzodioxol-5-yl)cyclopropyl]carbonyl}amino)-N-(1,1-dioxidotetrahydro-2H-thiopyran-4-yl)-7-methoxy-3,4-dihydro-2H-chromene-2-carboxamide] are 4.1 µM and 51%.
In the case of `COc1ccc2c(c1)O[C@@H](C(=O)NC1(C(F)(F)F)COC1)C[C@@H]2NC(=O)C1(c2ccc3c(c2)OC(F)(F)O3)CC1` (racemic) [Example 192, rac-(2R,4S)-4-({[1-(2,2-difluoro-1,3-benzodioxol-5-yl)cyclopropyl]carbonyl}amino)-7-methoxy-N-[3-(trifluoromethyl)oxetan-3-yl]-3,4-dihydro-2H-chromene-2-carboxamide], the EC50 was determined as 4.4 µM and the Emax amounted to 29%.
`COc1ccc2c(c1)O[C@@H](C(=O)N1CCC(F)(F)CC1)C[C@@H]2NC(=O)C1(c2ccc3c(c2)OC(F)(F)O3)CC1` (racemic) [Example 193, rac-1-(2,2-difluoro-1,3-benzodioxol-5-yl)-N-{(2R,4S)-2-[(4,4-difluoropiperidin-1-yl)carbonyl]-7-methoxy-3,4-dihydro-2H-chromen-4-yl}cyclopropanecarboxamide]: the EC50 is 0.47 µM and the Emax is 68%.
As for `COc1ccc2c(c1)O[C@@H](C(=O)N1CCCOCC1)C[C@@H]2NC(=O)C1(c2ccc3c(c2)OC(F)(F)O3)CC1` (racemic) [Example 194, rac-1-(2,2-difluoro-1,3-benzodioxol-5-yl)-N-[(2R,4S)-7-methoxy-2-(1,4-oxazepan-4-ylcarbonyl)-3,4-dihydro-2H-chromen-4-yl]cyclopropanecarboxamide], a half-maximal effect (EC50) was put at 0.88 µM and the Emax is 68%.
Regarding `COc1ccc2c(c1)O[C@@H](C(=O)N(C)C1COC1)C[C@@H]2NC(=O)C1(c2ccc3c(c2)OC(F)(F)O3)CC1` (racemic) [Example 195, rac-(2R,4S)-4-({[1-(2,2-difluoro-1,3-benzodioxol-5-yl)cyclopropyl]carbonyl}amino)-7-methoxy-N-methyl-N-(oxetan-3-yl)-3,4-dihydro-2H-chromene-2-carboxamide], the EC50 was determined as 7.53 µM and the Emax was 37%.
The corresponding values for `COc1ccc2c(c1)O[C@@H](C(=O)N1CCOCC1)C[C@@H]2NC(=O)C1(c2ccc3c(c2)OC(F)(F)O3)CC1` (racemic) [Example 196, rac-1-(2,2-difluoro-1,3-benzodioxol-5-yl)-N-[(2R,4S)-7-methoxy-2-(morpholin-4-ylcarbonyl)-3,4-dihydro-2H-chromen-4-yl]cyclopropanecarboxamide] are 1.24 µM and 67%.
In the case of `COc1ccc2c(c1)O[C@@H](C(=O)NC(CO)c1ccccc1OC)C[C@@H]2NC(=O)C1(c2ccc3c(c2)OC(F)(F)O3)CC1` (mixture of isomers) [Example 197, rac-(2R,4S)-4-({[1-(2,2-difluoro-1,3-benzodioxol-5-yl)cyclopropyl]carbonyl}amino)-N-[2-hydroxy-1-(2-methoxyphenyl)ethyl]-7-methoxy-3,4-dihydro-2H-chromene-2-carboxamide], the response was half-maximal at 2.1 µM (EC50) and the Emax is 73%.
For `COc1ccc2c(c1)O[C@@H](C(=O)NCCc1cccc(O)c1)C[C@@H]2NC(=O)C1(c2ccc3c(c2)OC(F)(F)O3)CC1` (racemic) [Example 198, rac-(2R,4S)-4-({[1-(2,2-difluoro-1,3-benzodioxol-5-yl)cyclopropyl]carbonyl}amino)-N-[2-(3-hydroxyphenyl)ethyl]-7-methoxy-3,4-dihydro-2H-chromene-2-carboxamide], the EC50 was determined as 1.71 µM and the Emax worked out at 67%.
